Laboratory results published in patent EP1902732A1, “PROPHYLACTIC/THERAPEUTIC AGENT FOR HER2-EXPRESSING CANCER” (Takeda Pharmaceutical Company Limited, priority 2005, dated 2006).

Experiments:
[1] = tested on: LNCaP prostate cancer cell; assay: Viable cell count using Cell Counting Kit-F; format: cell-based, human; conditions: LNCaP; HER2-expressing cancer; five days of culture
Protocol: (§1) BT-474 breast cancer cell, MDA-MB-453 breast cancer cell, A549 non-small cell lung cancer cell and LNCaP prostate cancer cell were used as human HER2-expressing cells while MDA-MB-231 breast cancer cell and A498 kidney cancer cell (all purchased from ATCC) were used as HER2-nonexpressing cells. Each of the cells used had been seeded into a 96-plate at 500cells/150 µL/well and cultured overnight. Each of the compounds, i.e., antimycin (final concentrations: 1, 0.1, 0.01 and 0.001 µmol/L), 2,4-dinitrophenol (final concentrations: 0.6, 0.2, 0.06 and 0.02 mmol/L), metformin (final concentrations: 25, 5, 1 and 0.2 mmol/L) and AICAR (final concentrations: 25, 5, 1 and 0.2 mmol/L) was diluted with a medium and added for 50 µL/well at a time to the final concentrations mentioned above. Following five days of culture at 37°C in 5% CO2, the cells were counted using Cell Counting Kit-F (Dojindo Laboratories).
(§2) Viable cell count using Cell Counting Kit-F was carried out by the following method according to the attached instruction. The supernatant was removed from the 96-well plate after five days of culture. Cell Counting Kit-F diluted 1000-fold with an RPMI medium (phenol red-free, serum-free) was added for 100 µL/well at a time. After 30 minutes of reaction at room temperature, fluorescence (excitation wavelength; 480 nm, fluorescent wavelength; 530 nm) was determined with a fluorescent plate reader.
(§3) From the determination results, percentage of the fluorescence level in the wells added with the compound was determined assuming that the fluorescence level in the wells without the addition of the compound (control) is 100%, and the remaining cellular quantity was determined in % with respect to that of the control.
(§4) BT-474 breast cancer cell, MDA-MB-453 breast cancer cell and LNCaP prostate cancer cell were used as human HER2-expressing cells while MDA-MB-231 breast cancer cell and A498 kidney cancer cell (all purchased from ATCC) were used as HER2-nonexpressing cells. Each of the cells used had been seeded into a 96-well plate at 500 cells/150 µL/well and cultured overnight. Troglitazone (final concentrations: 25, 6.25 and 1.56 µmol/L) was diluted with a medium, and added for 50 µL/well at a time to the final concentrations mentioned above. Following five days of culture at 37°C in 5% CO2, the cells were counted using Cell Counting Kit-F (Dojindo Laboratories).
as §3, with “troglitazone” for “the compound”

[2] = tested on: MDA-MB-453 breast cancer cell; assay: Viable cell count using Cell Counting Kit-F; format: cell-based, human; conditions: MB453; HER2-expressing cancer; five days of culture
Protocol: as §1, §2, §3, §4
as §3, with “troglitazone” for “the compound”

[3] = tested on: BT-474 breast cancer cell; assay: Viable cell count using Cell Counting Kit-F; format: cell-based, human; conditions: BT474; HER2-expressing cancer; five days of culture
Protocol: as §1, §2, §3, §4
as §3, with “troglitazone” for “the compound”

[4] = tested on: phosphorylated S6 kinase (S6K); assay: Western blotting of phosphorylated S6K in BT-474 cells; format: cell-based, human; conditions: Example 7, two hours, antimycin 1-0.01 nmol/L, oligomycin 100-1 ng/mL, 2,4-dinitrophenol 300-3 µmol/L
Protocol: (§5) Human HER2-expressing human breast cancer cell line BT-474 (purchased from American Tissue Culture Collection (ATCC)) was seeded into a 24-multiwell plate (BT-474: 1.2 x 10^5 cells/well) and cultured overnight in a carbon dioxide gas incubator (5% CO2, 37°C). As an energy metabolism inhibitor having a mechanism that differed from that of rotenone, mitochondrial respiratory chain complex III-inhibiting compound antimycin (Wako Pure Chemical Industries) was added to final concentrations of 1, 0.3, 0.1, 0.03 and 0.01 nmol/L while continuing culture. Using another plate, mitochondrial respiratory chain complex V-inhibiting compound oligomycin (Wako Pure Chemical Industries) was added to final concentrations of 100, 30, 10, 3 and 1 ng/mL while continuing culture. In addition, 2,4-dinitrophenol was added to 300, 100, 30, 10 and 3 µmol/L while continuing culture. Two hours after the addition of the agent, the broth was removed and the cells were lysed with an SDS sample buffer (200 µL). Then, this cell lysate was used to perform western blotting analysis. Specifically, this cell lysate (8 µL) was separated by an SDS-PAGE method (gel concentration: 7.5-15%) (Analytical Biochemistry, No. 166, pp. 368-379, 1987) and transferred onto a nitrocellulose membrane (BioRad). Then, an antibody specific to phosphorylated HER2 (Cell signaling technology, Code# 2244), pACC antibody specific to phosphorylated acetyl-CoA carboxylase (ACC) (Cell signaling technology, Code# 3661) and anti-phosphorylated S6K antibody specific to phosphorylated S6 kinase (S6K) (Cell signaling technology, Code# 9209) were used to detect the antibody by chemiluminescent detection with an ECL system (Amersham) to quantify an amount of phosphorylated protein with LAS-1000 plus image analysis device (FUJIFILM).

[5] = tested on: DU145; assay: Viable cell count using Cell Counting Kit-F; format: cell-based; conditions: HER2-nonexpressing cancer, five days of culture
[6] = tested on: phosphorylated acetyl-CoA carboxylase (ACC); assay: Western blotting of phosphorylated ACC in BT-474 cells; format: cell-based, human; conditions: Example 7, two hours, antimycin 1-0.01 nmol/L, oligomycin 100-1 ng/mL, 2,4-dinitrophenol 300-3 µmol/L
Protocol: as §5

Row | Compound | minimum concentrations for inhibiting cell proliferation for 50% or more [1] [mmol/L] | minimum concentrations for inhibiting cell proliferation for 50% or more [2] [mmol/L] | minimum concentrations for inhibiting cell proliferation for 50% or more [3] [mmol/L] | phosphorylation of S6K [4] | minimum concentrations for inhibiting cell proliferation for 50% or more [5] [mmol/L] | phosphorylation of ACC [6]
1 | O=[N+]([O-])c1ccc(O)c([N+](=O)[O-])c1 [2,4-dinitrophenol] | <0.02 | <0.02 | <0.02 | suppressed | 0.067 | increased dose-dependently
2 | antimycin | 1e-06 | 1e-06 | 1e-06 | suppressed | >0.0001 | increased dose-dependently
